Results taken from patent publication US6737383B1, “Herbicidal oxadiazolidines” (priority 1999, dated 2004).

Experiments:
rape = test: Test B pre/postemergence rape; type: in vivo, Brassica napus
How it was run: (§1)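 Herbicidal effect was estimated by eye on a ten-point control scale after plants spent twelve to sixteen days in a greenhouse following soil or foliar treatment. Foliar sprays targeted plants at one to four leaves; all doses were formulated in a non-phytotoxic solvent with surfactant.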

surinam grass = test: Test B pre/postemergence surinam grass; type: in vivo, Brachiaria decumbens
How it was run: as §1

wild oat = test: Test B pre/postemergence wild oat; type: in vivo, Avena fatua
How it was run: as §1

soybean = test: Test B pre/postemergence soybean; type: in vivo, Glycine max
How it was run: as §1

wheat = test: Test B pre/postemergence wheat; type: in vivo, Triticum aestivum
How it was run: as §1

corn = test: Test B pre/postemergence corn; type: in vivo, Zea mays
How it was run: as §1

purple nutsedge = test: Test B pre/postemergence purple nutsedge; type: in vivo, Cyperus rotundus
How it was run: as §1

smallflower flatsedge = test: Test B flood test smallflower flatsedge; type: in vivo, Cyperus difformis
How it was run: (§2)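 Flood test on plants grown to the 2-leaf stage; treated plants kept in greenhouse twelve to sixteen days, then visually rated against controls on a 0 (no effect) to 10 (complete control) scale.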

velvetleaf = test: Test B pre/postemergence velvetleaf; type: in vivo, Abutilon theophrasti
How it was run: as §1

sugar beet = test: Test B pre/postemergence sugar beet; type: in vivo, Beta vulgaris
How it was run: as §1

bedstraw = test: Test B pre/postemergence bedstraw; type: in vivo, Galium aparine
How it was run: as §1

bamyardgrass = test: Test B flood test barnyardgrass; type: in vivo, Echinochloa crus-galli
How it was run: as §2

blackgrass = test: Test B pre/postemergence blackgrass; type: in vivo, Alopecurus myosuroides
How it was run: as §1

cocklebur = test: Test B pre/postemergence cocklebur; type: in vivo, Xanthium strumarium
How it was run: as §1

pigweed = test: Test B pre/postemergence pigweed; type: in vivo, Amaranthus retroflexus
How it was run: as §1

crabgrass = test: Test B pre/postemergence crabgrass; type: in vivo, Digitaria sanguinalis
How it was run: as §1

[1] = Postemergence, Rate 125 g/ha, scale of 0 to 10 where 0 is no effect and 10 is complete control
[2] = Preemergence, Rate 62 g/ha, scale of 0 to 10 where 0 is no effect and 10 is complete control
[3] = Preemergence, Rate 125 g/ha, 0 is no effect, 10 is complete control
[4] = Preemergence, Rate 250 g/ha, scale 0 to 10, 0 is no effect, 10 is complete control
[5] = Preemergence, Rate 500 g/ha, scale 0 to 10 (0 no effect, 10 complete control)
[6] = Rate 62 g/ha, Postemergence, scale of 0 to 10 where 0 is no effect and 10 is complete control
[7] = Rate 250 g/ha, Postemergence, scale 0 to 10, 0 is no effect, 10 is complete control
[8] = Rate 500 g/ha, Postemergence, scale 0 to 10
[9] = Postemergence (flood test species), Rate 125 g/ha, scale of 0 to 10 where 0 is no effect and 10 is complete control
[10] = Rate 62 g/ha, Postemergence section, flood test species, scale of 0 to 10 where 0 is no effect and 10 is complete control
[11] = Rate 250 g/ha, Postemergence (flood test), scale 0 to 10, 0 is no effect, 10 is complete control
[12] = Rate 500 g/ha, listed under Postemergence (flood test species), scale 0 to 10

SMILES: CC(C)Cn1c(=O)on(C(=O)N(c2ccc(F)cc2)C(C)C)c1=O [Compound 169]
- Rape plant response rating (rape; [1]): 0
- Rape plant response rating (rape; [2]): 2
- Rape plant response rating (0 to 10 scale) (rape; [3]): 2
- Rape plant response rating (rape; [4]): 6
- Rape plant response rating (rape; [5]): 10
- Rape plant response rating (rape; [6]): 0
- Plant response rating, Rape (rape; [7]): 0
- Rape plant response rating (rape; [8]): 3
- B. signalgrass plant response rating (surinam grass; [1]): 0
- B. signalgrass plant response rating (surinam grass; [2]): 7
- B. signalgrass plant response rating (0 to 10 scale) (surinam grass; [3]): 7
- B. signalgrass plant response rating (surinam grass; [4]): 7
- B. signalgrass plant response rating (surinam grass; [5]): 7
- B. signalgrass plant response rating (surinam grass; [6]): 0
- Plant response rating, B. signalgrass (surinam grass; [7]): 0
- B. signalgrass plant response rating (surinam grass; Rate 500 g/ha, Postemergence, scale 0 to 10, 0 no effect, 10 complete control): 7
- Wild oats plant response rating (wild oat; [2]): 8
- Wild oats plant response rating (0 to 10 scale) (wild oat; [3]): 8
- Wild oats plant response rating (wild oat; [4]): 8
- Wild oats plant response rating (wild oat; [5]): 10
- Plant response rating, Wild oats (wild oat; [7]): 0
- Wild oats plant response rating (wild oat; [8]): 2
- Soybean plant response rating (soybean; [1]): 1
- Soybean plant response rating (soybean; [2]): 0
- Soybean plant response rating (0 to 10 scale) (soybean; [3]): 0
- Soybean plant response rating (soybean; [4]): 2
- Soybean plant response rating (soybean; [5]): 5
- Soybean plant response rating (soybean; [6]): 1
- Plant response rating, Soybean (soybean; [7]): 3
- Soybean plant response rating (soybean; [8]): 6
- Wheat plant response rating (wheat; [2]): 0
- Wheat plant response rating (0 to 10 scale) (wheat; [3]): 0
- Wheat plant response rating (wheat; [4]): 3
- Wheat plant response rating (wheat; [5]): 4
- Plant response rating, Wheat (wheat; [7]): 0
- Wheat plant response rating (wheat; [8]): 2
- Corn plant response rating (corn; [1]): 0
- Corn plant response rating (corn; [2]): 0
- Corn plant response rating (0 to 10 scale) (corn; [3]): 0
- Corn plant response rating (corn; [4]): 3
- Corn plant response rating (corn; [5]): 6
- Corn plant response rating (corn; [6]): 0
- Plant response rating, Corn (corn; [7]): 0
- Corn plant response rating (corn; [8]): 0
- Nutsedge plant response rating (purple nutsedge; [1]): 0
- Nutsedge plant response rating (purple nutsedge; [2]): 0
- Nutsedge plant response rating (0 to 10 scale) (purple nutsedge; [3]): 0
- Nutsedge plant response rating (purple nutsedge; [4]): 0
- Nutsedge plant response rating (purple nutsedge; [5]): 3
- Nutsedge plant response rating (purple nutsedge; [6]): 0
- Plant response rating, Nutsedge (purple nutsedge; [7]): 0
- Nutsedge plant response rating (purple nutsedge; [8]): 0
- S. Flatsedge plant response rating (smallflower flatsedge; [9]): 0
- S. Flatsedge plant response rating (smallflower flatsedge; [10]): 0
- Plant response rating, S. Flatsedge (smallflower flatsedge; [11]): 0
- S. Flatsedge plant response rating (smallflower flatsedge; [12]): 0
- Velvetleaf plant response rating (velvetleaf; [2]): 2
- Velvetleaf plant response rating (0 to 10 scale) (velvetleaf; [3]): 2
- Velvetleaf plant response rating (velvetleaf; [4]): 6
- Velvetleaf plant response rating (velvetleaf; [5]): 8
- Plant response rating, Velvetleaf (velvetleaf; [7]): 0
- Velvetleaf plant response rating (velvetleaf; [8]): 0
- Sugarbeets plant response rating (sugar beet; [1]): 0
- Sugarbeets plant response rating (sugar beet; [2]): 0
- Sugarbeets plant response rating (0 to 10 scale) (sugar beet; [3]): 0
- Sugarbeets plant response rating (sugar beet; [4]): 7
- Sugarbeets plant response rating (sugar beet; [5]): 8
- Sugarbeets plant response rating (sugar beet; [6]): 0
- Plant response rating, Sugarbeets (sugar beet; [7]): 0
- Sugarbeets plant response rating (sugar beet; [8]): 0
- Bedstraw plant response rating (bedstraw; [1]): 2
- Bedstraw plant response rating (bedstraw; [2]): 0
- Bedstraw plant response rating (0 to 10 scale) (bedstraw; [3]): 0
- Bedstraw plant response rating (bedstraw; [4]): 7
- Bedstraw plant response rating (bedstraw; [5]): 10
- Bedstraw plant response rating (bedstraw; [6]): 2
- Plant response rating, Bedstraw (bedstraw; [7]): 7
- Barnyardgrass plant response rating (bamyardgrass; [9]): 0
- Barnyardgrass plant response rating (bamyardgrass; [10]): 0
- Plant response rating, Barnyardgrass (bamyardgrass; [11]): 0
- Barnyardgrass plant response rating (bamyardgrass; [12]): 0
- Blackgrass plant response rating (blackgrass; [1]): 4
- Blackgrass plant response rating (blackgrass; [2]): 3
- Blackgrass plant response rating (0 to 10 scale) (blackgrass; [3]): 3
- Blackgrass plant response rating (blackgrass; [4]): 8
- Blackgrass plant response rating (blackgrass; [5]): 10
- Blackgrass plant response rating (blackgrass; [6]): 2
- Plant response rating, Blackgrass (blackgrass; [7]): 5
- Blackgrass plant response rating (blackgrass; [8]): 9
- Cocklebur plant response rating (cocklebur; [1]): 0
- Cocklebur plant response rating (cocklebur; [2]): 0
- Cocklebur plant response rating (0 to 10 scale) (cocklebur; [3]): 0
- Cocklebur plant response rating (cocklebur; [4]): 0
- Cocklebur plant response rating (cocklebur; [5]): 0
- Cocklebur plant response rating (cocklebur; [6]): 0
- Plant response rating, Cocklebur (cocklebur; [7]): 0
- Cocklebur plant response rating (cocklebur; [8]): 3
- Redroot pigweed plant response rating (pigweed; [1]): 0
- Redroot pigweed plant response rating (pigweed; [2]): 6
- Redroot pigweed plant response rating (0 to 10 scale) (pigweed; [3]): 6
- Redroot pigweed plant response rating (pigweed; [4]): 8
- Redroot pigweed plant response rating (pigweed; [5]): 8
- Redroot pigweed plant response rating (pigweed; [6]): 0
- Plant response rating, Redroot pigweed (pigweed; [7]): 0
- Redroot pigweed plant response rating (pigweed; [8]): 3
- Crabgrass plant response rating (crabgrass; [1]): 8
- Crabgrass plant response rating (crabgrass; [2]): 8
- Crabgrass plant response rating (0 to 10 scale) (crabgrass; [3]): 8
- Crabgrass plant response rating (crabgrass; [4]): 10
- Crabgrass plant response rating (crabgrass; [5]): 10
- Crabgrass plant response rating (crabgrass; [6]): 2
- Plant response rating, Crabgrass (crabgrass; [7]): 9
- Crabgrass plant response rating (crabgrass; [8]): 9
